What was measured:
[1] = system: E. aerogenes (ATCC 13408); assay: Microbroth dilution MIC (CLSI); format: cell-based, Enterobacter aerogenes; settings: Klebsiella aerogenes, ATCC13408; E. aerogenes (ATCC 13408); read-out: MIC
Procedure: (§1) The chemical entities described in the present invention were assessed for their antimicrobial activity using a microbroth dilution assay as recommended by the CLSI (Methods for Dilution Antimicrobial Susceptibility Tests for Bacteria That Grow Aerobically, and Methods for Antimicrobial Susceptibility Testing of Anaerobic Bacteria, Clinical and Laboratory Standards Institute, Document M07-A8, and M11-A8, Wayne, PA 19087, USA, 2012.). Compounds were dissolved by using 100% DMSO. Serial two-fold dilutions of each compound were made by using 100% DMSO as the diluent.
(§2) A library of Gram-negative and Gram-positive microbes and their drug- and multidrug-resistant variants were employed as test organisms. The MIC (minimum inhibitory concentration) was determined as the lowest concentration of an individual drug that lead to no visible growth.

E. coli DNA gyrase = molecular target: T1, E. coli DNA gyrase (Escherichia coli, UniProt P0AES6); assay: biochemical; settings: E. coli DNA gyrase; for IC50: read-out: IC50
T1 construct: purchased Inspiralis
Procedure: (§3) Inhibitory activities for compounds of the present invention were determined on E. coli and S. aureus DNA gyrase and topoisomerase IV in an assay from Inspiralis on streptavidin-coated 96-well microtiter plates from Thermo scientific Pierce. […] After washing off the unbound oligonucleotide, the enzyme test was performed. […] Reaction solutions were incubated at 37° C. for 30 min. After that, the TF buffer (50 mM NaOAc with pH 5.0, 50 mM NaCl and 50 mM MgCl2) was added to terminate the enzymatic reaction. After additional incubation for 30 min at rt, during which biotin-oligonucleotide-plasmid triplex was formed, the unbound plasmid was washed off using TF buffer and SybrGOLD in T10 buffer (10 mM Tris HCl with pH 8.0 and 1 mM EDTA) was added. […] GraphPad Prism 6.0 software was used to calculate the IC50 values. The result is given as the average value of three independent measurements. […] Chemoth.

E. coli ATCC 25922 = assay: Microbroth dilution MIC (CLSI); format: cell-based; settings: Escherichia coli, ATCC25922; E. coli ATCC 25922; read-out: MIC
Procedure: as §1, §2

[2] = system: K. pneumoniae (ATCC 700603); assay: Microbroth dilution MIC (CLSI); format: cell-based; settings: Klebsiella pneumoniae, ATCC700603; K. pneumoniae (ATCC 700603); read-out: MIC
Procedure: as §1, §2

[3] = system: A. baumannii (ATCC 19606); assay: Microbroth dilution MIC (CLSI); format: cell-based; settings: Acinetobacter baumannii, ATCC19606; A. baumannii (ATCC 19606); read-out: MIC
Procedure: as §1, §2

P. aeruginosa ATCC 27853 = assay: Microbroth dilution MIC (CLSI); format: cell-based; settings: Pseudomonas aeruginosa, ATCC27853; P. aeruginosa ATCC 27853; read-out: MIC
Procedure: as §1, §2

E. faecium (ATCC 35667) = assay: Microbroth dilution MIC (CLSI); format: cell-based; settings: Enterococcus faecium, ATCC35667; E. faecium (ATCC 35667); read-out: MIC
Procedure: as §1, §2

S. aureus ATCC 29213 = assay: Microbroth dilution MIC (CLSI); format: cell-based; settings: Staphylococcus aureus, ATCC29213; S. aureus ATCC 29213; read-out: MIC
Procedure: as §1, §2

E. coli topoisomerase IV = molecular target: T2, E. coli topoisomerase IV (Escherichia coli, UniProt P20083); assay: biochemical; settings: E. coli topo IV; for IC50: read-out: IC50; for remaining activity at 1 µM: 1 μM compound
T2 construct: purchased Inspiralis
T2 sequence (P0AFI2 whole entry): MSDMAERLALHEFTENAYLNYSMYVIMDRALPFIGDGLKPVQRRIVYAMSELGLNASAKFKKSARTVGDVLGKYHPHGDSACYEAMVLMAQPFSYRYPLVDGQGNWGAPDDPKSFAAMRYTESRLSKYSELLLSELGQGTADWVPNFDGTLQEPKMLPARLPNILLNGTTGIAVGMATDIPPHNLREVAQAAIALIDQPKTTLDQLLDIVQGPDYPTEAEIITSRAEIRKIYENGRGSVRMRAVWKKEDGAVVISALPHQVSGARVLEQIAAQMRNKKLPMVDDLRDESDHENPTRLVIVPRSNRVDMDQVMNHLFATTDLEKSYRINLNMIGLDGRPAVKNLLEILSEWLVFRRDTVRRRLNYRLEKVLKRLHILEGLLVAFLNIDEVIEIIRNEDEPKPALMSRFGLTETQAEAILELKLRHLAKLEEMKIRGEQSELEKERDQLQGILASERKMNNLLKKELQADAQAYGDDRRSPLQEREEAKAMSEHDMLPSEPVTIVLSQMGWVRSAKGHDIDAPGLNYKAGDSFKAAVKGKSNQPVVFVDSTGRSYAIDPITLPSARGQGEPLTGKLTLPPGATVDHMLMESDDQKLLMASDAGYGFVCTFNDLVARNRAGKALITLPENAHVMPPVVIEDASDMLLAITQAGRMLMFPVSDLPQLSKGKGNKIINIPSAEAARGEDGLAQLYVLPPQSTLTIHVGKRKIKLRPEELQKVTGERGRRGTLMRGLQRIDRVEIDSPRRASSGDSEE
T2 sequence (P20083 whole entry): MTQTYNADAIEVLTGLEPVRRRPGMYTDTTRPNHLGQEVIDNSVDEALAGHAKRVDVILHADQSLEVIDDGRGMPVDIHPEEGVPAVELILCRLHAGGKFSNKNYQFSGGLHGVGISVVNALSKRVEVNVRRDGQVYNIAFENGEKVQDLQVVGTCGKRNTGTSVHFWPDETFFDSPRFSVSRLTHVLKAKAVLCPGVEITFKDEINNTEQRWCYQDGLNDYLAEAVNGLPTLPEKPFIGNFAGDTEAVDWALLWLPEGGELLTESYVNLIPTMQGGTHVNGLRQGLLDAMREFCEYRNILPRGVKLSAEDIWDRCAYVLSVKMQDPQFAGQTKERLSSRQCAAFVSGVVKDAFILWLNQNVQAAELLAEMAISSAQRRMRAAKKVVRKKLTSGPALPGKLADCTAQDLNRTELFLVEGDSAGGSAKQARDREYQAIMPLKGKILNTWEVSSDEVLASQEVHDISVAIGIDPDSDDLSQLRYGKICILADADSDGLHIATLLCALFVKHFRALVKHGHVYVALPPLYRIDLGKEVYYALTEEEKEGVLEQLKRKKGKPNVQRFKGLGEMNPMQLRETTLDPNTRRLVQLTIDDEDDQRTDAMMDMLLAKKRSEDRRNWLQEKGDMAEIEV
Procedure: (§4) Inhibitory activities for compounds of the present invention were determined on E. coli and S. aureus DNA gyrase and topoisomerase IV in an assay from Inspiralis on streptavidin-coated 96-well microtiter plates from Thermo scientific Pierce. […] After washing off the unbound oligonucleotide, the enzyme test was performed. […] Reaction solutions were incubated at 37° C. for 30 min. After that, the TF buffer (50 mM NaOAc with pH 5.0, 50 mM NaCl and 50 mM MgCl2) was added to terminate the enzymatic reaction. After additional incubation for 30 min at rt, during which biotin-oligonucleotide-plasmid triplex was formed, the unbound plasmid was washed off using TF buffer and SybrGOLD in T10 buffer (10 mM Tris HCl with pH 8.0 and 1 mM EDTA) was added. […] Initial screening was done at 100 or 10 nM concentration of inhibitors against E. coli DNA gyrase or 1 μM or 100 nM concentration against S. aureus DNA gyrase and E. coli and S. aureus topo IV. […] GraphPad Prism 6.0 software was used to calculate the IC50 values. The result is given as the average value of three independent measurements. […] Chemoth.

S. aureus DNA gyrase = molecular target: T3, S. aureus DNA gyrase (Staphylococcus aureus, UniProt P0A0K8); assay: biochemical; settings: S. aureus DNA gyrase; for IC50: read-out: IC50
T3 construct: purchased Inspiralis
T3 sequence (P20831 whole entry): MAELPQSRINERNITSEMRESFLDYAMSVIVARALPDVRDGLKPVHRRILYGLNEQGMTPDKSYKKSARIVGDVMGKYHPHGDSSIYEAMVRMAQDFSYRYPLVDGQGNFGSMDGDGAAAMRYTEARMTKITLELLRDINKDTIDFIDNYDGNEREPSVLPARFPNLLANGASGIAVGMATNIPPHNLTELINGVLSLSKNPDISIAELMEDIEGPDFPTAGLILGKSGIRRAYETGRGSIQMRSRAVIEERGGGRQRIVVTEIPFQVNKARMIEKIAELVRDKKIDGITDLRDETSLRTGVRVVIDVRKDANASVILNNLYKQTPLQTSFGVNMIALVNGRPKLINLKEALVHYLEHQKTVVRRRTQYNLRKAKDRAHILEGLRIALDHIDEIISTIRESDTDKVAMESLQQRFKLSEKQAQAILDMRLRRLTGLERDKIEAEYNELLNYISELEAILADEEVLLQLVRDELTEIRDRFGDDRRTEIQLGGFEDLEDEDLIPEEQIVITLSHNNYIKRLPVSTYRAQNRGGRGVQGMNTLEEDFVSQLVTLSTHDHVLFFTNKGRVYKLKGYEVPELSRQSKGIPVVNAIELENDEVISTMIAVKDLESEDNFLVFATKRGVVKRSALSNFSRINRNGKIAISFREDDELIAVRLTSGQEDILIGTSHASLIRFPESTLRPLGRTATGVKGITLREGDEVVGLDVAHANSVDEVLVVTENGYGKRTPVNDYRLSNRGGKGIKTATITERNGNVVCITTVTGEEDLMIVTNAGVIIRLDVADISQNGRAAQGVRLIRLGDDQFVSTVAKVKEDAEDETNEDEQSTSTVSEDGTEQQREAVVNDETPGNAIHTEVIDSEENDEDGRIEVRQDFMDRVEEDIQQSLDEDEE
T3 sequence (P0A0K8 whole entry): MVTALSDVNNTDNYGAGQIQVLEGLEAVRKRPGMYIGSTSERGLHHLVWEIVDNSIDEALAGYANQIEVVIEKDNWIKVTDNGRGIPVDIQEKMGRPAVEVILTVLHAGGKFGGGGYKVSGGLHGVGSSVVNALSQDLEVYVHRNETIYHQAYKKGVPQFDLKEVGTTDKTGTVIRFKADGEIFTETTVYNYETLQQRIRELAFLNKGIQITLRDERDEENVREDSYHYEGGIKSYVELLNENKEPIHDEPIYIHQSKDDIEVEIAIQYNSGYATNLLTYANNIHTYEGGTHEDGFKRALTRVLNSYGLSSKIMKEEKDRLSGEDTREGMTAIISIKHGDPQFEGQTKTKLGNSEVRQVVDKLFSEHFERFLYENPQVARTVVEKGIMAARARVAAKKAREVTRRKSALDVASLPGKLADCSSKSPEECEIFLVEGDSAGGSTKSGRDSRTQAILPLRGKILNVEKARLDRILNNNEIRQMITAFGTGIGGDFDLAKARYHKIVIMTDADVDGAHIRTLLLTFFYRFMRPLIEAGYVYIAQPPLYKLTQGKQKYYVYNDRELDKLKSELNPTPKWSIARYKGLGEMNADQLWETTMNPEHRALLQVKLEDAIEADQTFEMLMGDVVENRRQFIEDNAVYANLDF
Procedure: as §3

E. faecium ATCC 700221 = assay: Microbroth dilution MIC (CLSI); format: cell-based; settings: Enterococcus faecium, ATCC700221; E. faecium ATCC 700221; read-out: MIC
Procedure: as §1, §2

K. pneumoniae ATCC 10031 = assay: Microbroth dilution MIC (CLSI); format: cell-based; settings: Klebsiella pneumoniae, ATCC10031; K. pneumoniae ATCC 10031; read-out: MIC
Procedure: as §1, §2

[4] = system: S. aureus ATCC 700699 (VISA); assay: Microbroth dilution MIC (CLSI); format: cell-based; settings: Staphylococcus aureus; S. aureus ATCC 700699 (VISA); read-out: MIC
Procedure: as §1, §2

E. faecalis ATCC 29212 = assay: Microbroth dilution MIC (CLSI); format: cell-based; settings: Enterococcus faecalis, ATCC29212; E. faecalis ATCC 29212; read-out: MIC
Procedure: as §1, §2

[5] = system: S. aureus ATCC 43300 (MRSA); assay: Microbroth dilution MIC (CLSI); format: cell-based; settings: Staphylococcus aureus; S. aureus ATCC 43300 (MRSA); read-out: MIC
Procedure: as §1, §2

[6] = system: E. spp. cloacae ATCC 13047; assay: Microbroth dilution MIC (CLSI); format: cell-based; settings: Enterobacter cloacae, ATCC13047; E. spp. cloacae ATCC 13047; read-out: MIC
Procedure: as §1, §2

A. baumannii ATCC 17978 = assay: Microbroth dilution MIC (CLSI); format: cell-based; settings: Acinetobacter baumannii, ATCC17978; A. baumannii ATCC 17978; read-out: MIC
Procedure: as §1, §2

[7] = molecular target: T4, S. aureus topoisomerase IV (Staphylococcus aureus, UniProt P0C1S7); assay: Topoisomerase IV inhibition assay (Inspiralis, streptavidin-coated plates); format: biochemical; settings: S. aureus topo IV; 0.1 μM compound; read-out: RA (residual activity of the enzyme)
T4 construct: purchased Inspiralis
T4 sequence (P0C1U9 whole entry): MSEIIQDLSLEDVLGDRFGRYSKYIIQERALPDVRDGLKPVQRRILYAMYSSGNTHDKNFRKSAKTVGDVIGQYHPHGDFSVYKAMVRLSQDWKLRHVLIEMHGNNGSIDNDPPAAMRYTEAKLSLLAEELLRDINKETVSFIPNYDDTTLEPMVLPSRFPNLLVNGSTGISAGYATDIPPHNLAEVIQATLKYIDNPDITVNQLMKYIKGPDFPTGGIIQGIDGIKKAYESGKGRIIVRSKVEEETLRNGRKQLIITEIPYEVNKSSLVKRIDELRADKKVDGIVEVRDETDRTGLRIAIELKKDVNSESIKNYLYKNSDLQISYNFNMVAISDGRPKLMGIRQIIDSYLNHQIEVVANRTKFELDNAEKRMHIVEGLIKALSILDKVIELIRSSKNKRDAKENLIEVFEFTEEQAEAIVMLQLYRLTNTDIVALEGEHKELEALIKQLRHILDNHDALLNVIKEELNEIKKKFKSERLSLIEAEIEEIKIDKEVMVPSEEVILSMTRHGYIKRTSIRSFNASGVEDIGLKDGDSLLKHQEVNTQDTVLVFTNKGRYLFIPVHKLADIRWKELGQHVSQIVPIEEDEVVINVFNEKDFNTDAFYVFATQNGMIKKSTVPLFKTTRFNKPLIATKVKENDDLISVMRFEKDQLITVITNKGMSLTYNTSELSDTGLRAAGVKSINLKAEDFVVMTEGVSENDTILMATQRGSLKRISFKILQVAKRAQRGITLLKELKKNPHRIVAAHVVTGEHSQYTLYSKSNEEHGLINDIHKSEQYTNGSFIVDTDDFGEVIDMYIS
T4 sequence (P0C1S7 whole entry): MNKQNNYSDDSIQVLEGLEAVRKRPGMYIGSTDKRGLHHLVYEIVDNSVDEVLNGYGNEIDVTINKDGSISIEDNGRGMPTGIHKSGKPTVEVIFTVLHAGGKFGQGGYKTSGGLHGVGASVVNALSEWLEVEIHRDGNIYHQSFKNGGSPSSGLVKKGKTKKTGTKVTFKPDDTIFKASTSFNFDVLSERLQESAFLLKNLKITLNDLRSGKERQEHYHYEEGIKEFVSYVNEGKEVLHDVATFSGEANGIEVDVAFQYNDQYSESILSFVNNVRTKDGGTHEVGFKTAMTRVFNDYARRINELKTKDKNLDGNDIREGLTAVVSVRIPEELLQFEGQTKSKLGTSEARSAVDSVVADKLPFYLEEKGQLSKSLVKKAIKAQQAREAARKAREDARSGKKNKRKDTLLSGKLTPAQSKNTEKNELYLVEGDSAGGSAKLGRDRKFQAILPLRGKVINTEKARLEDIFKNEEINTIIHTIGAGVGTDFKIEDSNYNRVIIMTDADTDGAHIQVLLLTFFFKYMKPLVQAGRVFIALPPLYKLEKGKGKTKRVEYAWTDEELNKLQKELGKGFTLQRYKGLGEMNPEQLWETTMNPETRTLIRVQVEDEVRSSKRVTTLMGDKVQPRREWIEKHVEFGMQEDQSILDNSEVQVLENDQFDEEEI
Procedure: as §4

[8] = 0.1 μM compound, read-out: RA (residual activity of the enzyme)
[9] = read-out: RA (residual activity of the enzyme)

SMILES | MIC (E. coli ATCC 25922) [µg/mL] | MIC (P. aeruginosa ATCC 27853) [µg/mL] | MIC (S. aureus ATCC 29213) [µg/mL] | IC50 (E. coli topoisomerase IV) [nM] | IC50 (S. aureus DNA gyrase) [nM] | IC50 (E. coli DNA gyrase) [nM] | MIC (E. faecium ATCC 700221) [µg/mL] | MIC (K. pneumoniae ATCC 10031) [µg/mL] | MIC [4] [µg/mL] | MIC (E. faecalis ATCC 29212) [µg/mL] | MIC [5] [µg/mL] | MIC [6] [µg/mL] | MIC (A. baumannii ATCC 17978) [µg/mL] | remaining activity at 1 µM (E. coli topoisomerase IV; [9]) [%] | further results
Cc1[nH]c(C(=O)Nc2ccc(C(=O)O)cc2N2CCC[C@H](N)C2)c(Cl)c1Cl.Cl [Example 14, (S)-1-(5-carboxy-2-(3,4-dichloro-5-methyl-1H-pyrrole-2-carboxamido)phenyl)piperidin-3-aminium chloride] | ≥ 64 | ≥ 64 | ≥ 64 | – | – | – | – | – | – | – | – | – | – | – | MIC [1]: ≥ 64 µg/mL; remaining activity at 0.1 µM (E. coli DNA gyrase; [8]): 52%; remaining activity at 1 µM (E. coli DNA gyrase; 1 μM compound, read-out: RA (residual activity of the enzyme)): -2%; MIC [2]: ≥ 64 µg/mL; MIC [3]: ≥ 64 µg/mL; MIC (E. faecium (ATCC 35667)): ≥ 64 µg/mL
Cc1[nH]c(C(=O)Nc2ccc(-c3noc(=O)[nH]3)cc2N2CCCC(N)C2)c(Cl)c1Cl.Cl (centres unmarked) [Example 2, 1-(2-(3,4-Dichloro-5-methyl-1H-pyrrole-2-carboxamido)-5-(5-oxo-4,5-dihydro-1,2,4-oxadiazol-3-yl)phenyl)piperidin-3-aminium chloride] | > 64 | > 64 | > 64 | 145 | 55.8 | 2.49 | 8 | 16 | > 64 | 8 | > 64 | > 64 | > 64 | – | –
Cc1[nH]c(C(=O)Nc2ccc(-n3nn[nH]c3=O)cc2N2CC[C@H](N)C2)c(Cl)c1Cl.Cl [Example 22, (S)-1-(2-(3,4-Dichloro-5-methyl-1H-pyrrole-2-carboxamido)-5-(5-oxo-4,5-dihydro-1H-tetrazol-1-yl)phenyl)pyrrolidin-3-aminium chloride] | ≥ 32 | ≥ 32 | ≥ 32 | – | 121 | 4.9 | ≥ 32 | ≥ 32 | > 64 | > 64 | ≥ 32 | ≥ 32 | ≥ 32 | 97 | remaining activity at 10 µM (E. coli topoisomerase IV; 10 μM compound, read-out: RA (residual activity of the enzyme)): 26%
Cc1[nH]c(C(=O)Nc2ccc(-c3n[nH]c(=O)o3)cc2N2CC[C@H](N)C2)c(Cl)c1Cl.Cl [Example 20, (S)-1-(2-(3,4-Dichloro-5-methyl-1H-pyrrole-2-carboxamido)-5-(5-oxo-4,5-dihydro-1,3,4-oxadiazol-2-yl)phenyl)pyrrolidin-3-aminium chloride] | 8 | 32 | 2 | – | – | 2.8 | – | 0.064 | – | 1 | 2 | 32 | 8 | 105 | remaining activity at 0.1 µM [7]: 99%; remaining activity at 0.01 µM (S. aureus DNA gyrase; 0.01 μM compound, read-out: RA (residual activity of the enzyme)): 90%; remaining activity at 0.1 µM (S. aureus DNA gyrase; [8]): 39%
Cc1[nH]c(C(=O)Nc2ccc(-c3noc(=O)[nH]3)cc2N2CCCC(CN)C2)c(Cl)c1Cl.Cl (centres unmarked) [Example 3, (1-(2-(3,4-Dichloro-5-methyl-1H-pyrrole-2-carboxamido)-5-(5-oxo-4,5-dihydro-1,2,4-oxadiazol-3-yl)phenyl)piperidin-3-yl)methanaminium chloride] | > 64 | > 64 | 4 | 41.8 | 24.1 | 3.19 | 2 | 2 | 2 | 0.25 | 4 | > 64 | > 64 | – | –
